Measurements taken from US20120142767A1, “PINE PCO ESTER COSMETIC COMPOSITION” (ACTION PIN, priority 2009, published 2012).
“And” between values parts separate entries of the source, which are not always exact repeats. Equal values may be shown once.

Assays:
IL-1α = experiment: Assay of IL-1α in the culture medium of UVB-irradiated reconstructed human epidermis; assay type: cell-based; conditions: indomethacin 3 hours before irradiation, not statistically significant
Protocol: A human epidermis is reconstructed in vitro in culture inserts. A paper filter disc on which the substance to be tested (preventive treatment) is deposited on the “stratum corneum”. After 24 hours, it is irradiated by UVBs and then the substance to be tested (curative treatment) is again applied. an assay of IL-1α, a pro-inflammatory mediator in the culture medium, […] 3 series of substance to be tested (5, 50 and 500 μg/mL) each consisting of 3 epidermises (to be irradiated). Next, the paper filter disks are carefully withdrawn and all the series are irradiated with UVBs (0.6 J/cm^2) (Spectroline model X-15N/F, λ=312 nm) except for the series corresponding to the absolute negative control and to the solvent control. The curative treatment is then applied as described above for the preventive treatment over a period of 24 hours, except for the positive control series 2 (indomethacin). The assay of IL-1α is carried out in the sampled culture media (n=3), diluted to 1/10th and to 1/20th according to the procedure described in the assay kit.

[1] = test system: reconstructed human epidermis; experiment: Cytotoxicity (MTT) on reconstructed human epidermis irradiated by UVBs; assay type: cell-based; conditions: for AU (MTT): 3 epidermises and mean ± SD
Protocol: A human epidermis is reconstructed in vitro in culture inserts. A paper filter disc on which the substance to be tested (preventive treatment) is deposited on the “stratum corneum”. After 24 hours, it is irradiated by UVBs and then the substance to be tested (curative treatment) is again applied. a study of cytoxicity (MTT), The keratinocytes sites are sown at a density of 100×10^3 cells/cm^2 in inserts, the bottom of which consists of a polycarbonate membrane (porosity 0.4 μm-1 cm^2). […] 3 series of substance to be tested (5, 50 and 500 μg/mL) each consisting of 3 epidermises (to be irradiated). Next, the paper filter disks are carefully withdrawn and all the series are irradiated with UVBs (0.6 J/cm^2) (Spectroline model X-15N/F, λ=312 nm) except for the series corresponding to the absolute negative control and to the solvent control. The curative treatment is then applied as described above for the preventive treatment over a period of 24 hours, except for the positive control series 2 (indomethacin). The MTT test is carried out according to the conditions described in the publications: […]. and Berg K. Re-examination and further development of a precise and rapid dye method for measuring cell growth/cell kill. J. Immunol. Methods. 1989, 119, 203; and Mosmann T., Rapid colorimetric assay for cellular growth and survival: Application to proliferation and cytotoxic assays, J. Immunol. Methods. 1983, 65, 55-63. At the end of the selected incubation time, the Whatman paper disk is carefully picked up, the <<stratum corneum>> is rinsed and the porous membrane bearing the epidermal layer is detached from the insert with a bistoury. The culture medium are used for assaying IL-1α and MDA. […] For each layer, 200 μL of the obtained solution are pipeted into an 96 well plate for carrying out spectrometry with a plate reader (FL600-BIO-TEK) at λ=540 nm.

normal human fibroblasts [2] = experiment: Cytotoxic activity on a monolayer of human fibroblasts (MTT, 24 hours); conditions: positive control (SDS), concentration not given
Protocol: After applying the product on the cells for 24 hours, cell viability is evaluated by measuring the activity of the mitochondrial succinate dehydrogenase of living cells. This enzyme transforms MTT (3(4,5-diméthylthiazol-2-yl)-2,5-diphenyltetrazolium bromide) into blue formazan crystals. After dissolution of these crystals, a spectrophotometric read-out is performed. The measured absorbancies are proportional to the number of living cells.
The cells used are fibroblast from human skin tissue (child foreskin) in passage 1.
Six dilutions of each sample, prepared in an culture medium with 0.005% of between 60 and 0.05% of cotton oil, are tested in an amount of 5 test wells per concentration. The reference elements are tested on 5 wells.
The absorbance is measured at 540 nm. The results are expressed as a mortality percentage compared with the negative control.

normal human fibroblasts [3] = experiment: Synthesis of collagen by human fibroblasts (Sircol assay); assay type: cell-based; design: stimulation of collagen at the cell matrix: dose or concentration left out as unconfirmed
Protocol: The goal of this study is to evaluate the effect of the test element on the synthesis of collagen after 24-hour contact with a monolayer of normal human fibroblasts.
The cells used are fibroblasts from a human child skin tissue (child) on passage 2.
The cells are sown with 50,000 cells/cm^2. After 24 hours of culture, 37° C., 5% CO2, they are incubated with the product under investigation and the reference element for 24 hours in a 1% FCS medium.
The collagen is assayed in the extra cellular matrix and in the culture medium by means of the assay box Sircol, Biocolor Ltd, Ireland, according to the procedure described in the box.
The assay is carried out with the red colouring agent Sirius (Direct Red 80) which has specific affinity for the trip helix structure (Gly-X-Y)n of native collagen.
The absorbance of the dye-collagen complex is read out with the spectrophotometer at 540 nm.
A standard curve is produced between 0 and 50 μg/mL of collagen of type I.
The collagen concentration is expressed in pg of collagen /ml/U MTT in the extra cellular matrix and in the culture medium.

MDA (malonaldehyde) = experiment: Assay of MDA (lipid peroxidation) in the culture medium of UVB-irradiated reconstructed human epidermis; assay type: cell-based; conditions: for MDA / MDA (μM/AU MTT): vitamin E 200 μg/mL + UVB, 3 epidermises and mean ± SD
Protocol: A human epidermis is reconstructed in vitro in culture inserts. A paper filter disc on which the substance to be tested (preventive treatment) is deposited on the “stratum corneum”. After 24 hours, it is irradiated by UVBs and then the substance to be tested (curative treatment) is again applied. an assay of MDA (malonaldehyde) (a terminal product formed during the lipid peroxidation process induced by the formation of radical species, or species activated by oxygen). […] 3 series of substance to be tested (5, 50 and 500 μg/mL) each consisting of 3 epidermises (to be irradiated). Next, the paper filter disks are carefully withdrawn and all the series are irradiated with UVBs (0.6 J/cm^2) (Spectroline model X-15N/F, λ=312 nm) except for the series corresponding to the absolute negative control and to the solvent control. The curative treatment is then applied as described above for the preventive treatment over a period of 24 hours, except for the positive control series 2 (indomethacin). […] dilutions are carried out between 0.1 and 10 μM (0.1-1-2.5-5 and 10 μM). 500 μL of culture medium (or 500 μL of a standard range) are energetically mixed in a vortex mixer, with 1 mL of a <<TCA, TBA, HCl>> solution ([…] of TCA trichloroacetic acid, 0.375% (w/v) of TBA (2-thiobarbituric acid), 0.25 M of HCl) (heated for 15 minutes at 100° C. in order to dissolve the TBA, and then left to cool). The mixture is incubated for 15 minutes at 100° C. and the OD is measured at λ=535 nm against a blank formed with the <<TCA, TBA, HCl>> solution.

## COc1ccc2c(c1)c(CC(=O)O)c(C)n2C(=O)c1ccc(Cl)cc1 [Indomethacin, indomethacin]
IL-1α
  inhibition of synthesis and secretion of IL-1α in the culture medium: −20%
[1]; indomethacin 10 μg/mL, 3 hours before UVB
  AU (MTT): 0.214 AU and 0.288 AU and 0.232 AU
[1]; indomethacin for 3 hours before irradiation
  protective effect as regards cytotoxicity: no protective effect

## CCCCCCCCCCCCOS(=O)(=O)[O-].[Na+] [Positive control, SDS]
Normal human fibroblasts [2]
  UA MTT: 0.065 UA

## TGF β1: positive control of the collagen synthesis test
Normal human fibroblasts [3]; TGF β1
  stimulation of collagen at the cell matrix: 88%
Normal human fibroblasts [3]; TGF β1 (100 ng/ml)
  Assay of collagen, Cell matrix: 9.74 μg/wells
  Assay of collagen, Culture medium: 11.36 μg/wells
  Assay of collagen, TOTAL: 21.09 μg/wells
  Collagen ratio, Cell matrix: 10.42 μg/wells/U MTT
  Collagen ratio, Culture medium: 12.15 μg/wells/U MTT
  Collagen ratio, TOTAL: 22.57 μg/wells/U MTT
  Stimulation of collagen excreted into the culture medium: 12%
  Stimulation of collagen produced in the cell matrix: 88%
  Stimulation of the synthesis of total collagen: 38%
Normal human fibroblasts [3]; TGF β1 at 10 μg/mL
  stimulation of total synthesis of collagen: 38%

## vitamin E
MDA (malonaldehyde)
  MDA: 0.422 µM and 0.423 µM and 0.484 µM
  MDA (μM/AU MTT): 1.715 μM/AU MTT and 1.147 μM/AU MTT and 1.359 μM/AU MTT
MDA (malonaldehyde); mean ± SD of three epidermises
  MDA: 0.443 ± 0.035 µM
  MDA (μM/AU MTT): 1.407 ± 0.287 μM/AU MTT
MDA (malonaldehyde); vitamin E before and after irradiation, with respect to the non-irradiated absolute negative control, P<0.05
  increase in the MDA level: 58%
[1]
  cytotoxic effect: 13%
[1]; vitamin E 200 μg/mL + UVB
  AU (MTT): 0.246 AU and 0.369 AU and 0.356 AU
